The source of these data is PubChem BioAssay AID330 (DTP/NCI, 2004).

Where “and” joins values, the source holds several entries; their conditions need not be identical. Equal entries are not always repeated. Toxic doses and inconclusive results are not listed.

In this assay the test system is P388 leukemia ip, CD2F1 mice, survival T/C. The experiment in a line: NCI In Vivo Anticancer Drug Screen. Data for tumor model P388 Leukemia (intraperitoneal) in CD2F1 (CDF1) mice. The settings on record: endpoint: median survival time, higher = longer survival. Put shortly:
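Mice carrying the transplanted tumor received test compound or vehicle. Survival was recorded in each group, and the value is the treated-group measurement divided by that of the vehicle-treated control group.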

Where [1] appears, read: dose: 50.0 mg/kg/injection, schedule: Q01DX009 (ip), vehicle: saline.
The mark [2] stands for this setting: dose: 100.0 mg/kg/injection, schedule: Q01DX009 (ip), vehicle: saline.
The mark [3] stands for this setting: dose: 200.0 mg/kg/injection, schedule: Q01DX009 (ip), vehicle: saline.
Setting [4] is: dose: 50.0 mg/kg/injection, schedule: Q01DX005 (ip), vehicle: Klucel (hydroxypropylcellulose) (HPC).
Setting [5] is: dose: 100.0 mg/kg/injection, schedule: Q01DX005 (ip), vehicle: Klucel (hydroxypropylcellulose) (HPC).
Setting [6] is: dose: 200.0 mg/kg/injection, schedule: Q01DX005 (ip), vehicle: Klucel (hydroxypropylcellulose) (HPC).
Setting [7] is: dose: 60.0 mg/kg/injection, schedule: Q01DX005 (ip), vehicle: saline with Tween-80.
The mark [8] stands for this setting: dose: 120.0 mg/kg/injection, schedule: Q01DX005 (ip), vehicle: saline with Tween-80.
The mark [9] stands for this setting: dose: 12.5 mg/kg/injection, schedule: Q01DX009 (ip), vehicle: saline with Tween-80.
Where [10] appears, read: dose: 50.0 mg/kg/injection, schedule: Q01DX009 (ip), vehicle: saline with Tween-80.
Where [11] appears, read: dose: 200.0 mg/kg/injection, schedule: Q01DX009 (ip), vehicle: saline with Tween-80.
Where [12] appears, read: dose: 12.5 mg/kg/injection, schedule: Q01DX005 (ip), vehicle: Klucel (hydroxypropylcellulose) (HPC).
Where [13] appears, read: dose: 25.0 mg/kg/injection, schedule: Q01DX005 (ip), vehicle: Klucel (hydroxypropylcellulose) (HPC).
The mark [14] stands for this setting: dose: 50.0 mg/kg/injection, schedule: Q01DX005 (ip), vehicle: saline with Tween-80.

As to `CC(=O)Oc1cccnc1`, the T/C reads like this: (dose: 50.0 mg/kg/injection, schedule: Q01DX006 (ip), vehicle: saline) 106 % of control; under setting [1], 100 % of control; (dose: 100.0 mg/kg/injection, schedule: Q01DX006 (ip), vehicle: saline) 100 % of control; under setting [2], 96 % of control; (dose: 200.0 mg/kg/injection, schedule: Q01DX006 (ip), vehicle: saline) 100 % of control; under setting [3], 95 % of control. Further, the T/C is 100 % of control (dose: 400.0 mg/kg/injection, schedule: Q01DX006 (ip), vehicle: saline); 95 % of control (dose: 400.0 mg/kg/injection, schedule: Q01DX009 (ip), vehicle: saline); 100 % of control (dose: 600.0 mg/kg/injection, schedule: Q01DX006 (ip), vehicle: saline); 94 % of control (dose: 600.0 mg/kg/injection, schedule: Q01DX009 (ip), vehicle: saline); 99 % of control (dose: 800.0 mg/kg/injection, schedule: Q01DX006 (ip), vehicle: saline); 95 % of control (dose: 800.0 mg/kg/injection, schedule: Q01DX009 (ip), vehicle: saline).

As for `CN(C)C1=CC(=O)NC2CCCCC12` (stereo not given), the T/C is 95 % of control under setting [4], 98 % of control under setting [5] and 105 % of control under setting [6].

As to `C=C1C[C@@]23CC[C@@H]4[C@](C)(CC[C@H](O)[C@]4(C)COC(=O)CCC(=O)O)[C@H]2CC[C@@H]1C3`, the T/C under setting [4] is 101 % of control, the T/C under setting [5] was 100 % of control and the T/C under setting [6] is 99 % of control.

For the molecule `NC(=S)N/N=C\Cn1cc([N+](=O)[O-])c(=O)[nH]c1=O`, the T/C is 101 % of control under setting [4] and 87 % of control under setting [5].

For the molecule `CN1C(c2ccccc2)CC(=C(C#N)c2ccccc2)CC1c1ccccc1` (stereo not given), the T/C is 103 % of control (dose: 30.0 mg/kg/injection, schedule: Q01DX005 (ip), vehicle: Klucel (hydroxypropylcellulose) (HPC)); 107 % of control (dose: 60.0 mg/kg/injection, schedule: Q01DX005 (ip), vehicle: Klucel (hydroxypropylcellulose) (HPC)); 93 % of control (dose: 120.0 mg/kg/injection, schedule: Q01DX005 (ip), vehicle: Klucel (hydroxypropylcellulose) (HPC)); 104 % of control (dose: 240.0 mg/kg/injection, schedule: Q01DX005 (ip), vehicle: Klucel (hydroxypropylcellulose) (HPC)).

`Clc1ccnc2ccc3ccccc3c12`: the T/C under setting [1] was 107 % of control; the T/C under setting [2] is 100 % of control and 101 % of control; the T/C under setting [3] is 100 % of control and 92 % of control.

Take `Cn1c(=O)c2c(ncn2CCCl)n(C)c1=O`: the T/C runs as follows: (dose: 12.5 mg/kg/injection, schedule: Q01DX005 (ip), vehicle: distilled water + Tween-80) 100 % of control; (dose: 25.0 mg/kg/injection, schedule: Q01DX005 (ip), vehicle: distilled water + Tween-80) 105 % of control; (dose: 50.0 mg/kg/injection, schedule: Q01DX005 (ip), vehicle: distilled water + Tween-80) 105 % of control; (dose: 100.0 mg/kg/injection, schedule: Q01DX005 (ip), vehicle: distilled water + Tween-80) 102 % of control.

Consider `CN(C)Cc1onc(-c2c(Cl)cccc2Cl)c1C(=O)O`, for which the T/C was 103 % of control under setting [7] and 95 % of control under setting [8].

As to `Cc1nc(C(=O)NO)c2ccccc2n1`, the T/C reads like this: under setting [9], 102 % of control; (dose: 25.0 mg/kg/injection, schedule: Q01DX009 (ip), vehicle: saline with Tween-80) 102 % of control; under setting [10], 98 % of control and 97 % of control; under setting [11], 103 % of control.

Turning to `CC(=O)[O][Bi]([c]1ccccc1)[c]1ccccc1`, the T/C (dose: 3.12 mg/kg/injection, schedule: Q01DX005 (ip), vehicle: Klucel (hydroxypropylcellulose) (HPC)) is 106 % of control and 108 % of control; the T/C (dose: 6.25 mg/kg/injection, schedule: Q01DX005 (ip), vehicle: Klucel (hydroxypropylcellulose) (HPC)) is 108 % of control and 110 % of control; the T/C under setting [12] was 103 % of control and 120 % of control; the T/C under setting [13] is 118 % of control; the T/C under setting [4] was 90 % of control.

As for `S=C(S)N1CCCCCC1`, the T/C reads like this: (dose: 60.0 mg/kg/injection, schedule: Q01DX005 (ip), vehicle: suspension in saline) 97 % of control; (dose: 120.0 mg/kg/injection, schedule: Q01DX005 (ip), vehicle: suspension in saline) 95 % of control.

For `CC(C)c1c2ccccc2nn1-c1ccccc1`, the T/C is 97 % of control (dose: 100.0 mg/kg/injection, schedule: Q04DX003 (ip), vehicle: saline with Tween-80); 89 % of control (dose: 200.0 mg/kg/injection, schedule: Q04DX003 (ip), vehicle: saline with Tween-80); 91 % of control (dose: 400.0 mg/kg/injection, schedule: Q04DX003 (ip), vehicle: saline with Tween-80).

Regarding `CC1=NCC(C)c2ccccc21` (stereo not given), the T/C was 96 % of control (dose: 6.25 mg/kg/injection, schedule: Q01DX009 (ip), vehicle: saline with Tween-80) and 95 % of control under setting [9].

`CC(C)=Nc1c(C(N)=O)c(-c2ccccc2)c(-c2ccccc2)n1-c1ccccc1`: the T/C was 107 % of control under setting [10]; 107 % of control (dose: 100.0 mg/kg/injection, schedule: Q01DX009 (ip), vehicle: saline with Tween-80); 98 % of control under setting [11].

Consider `O=C(O)CS(=O)(=O)N1CCOCC1`, for which the T/C under setting [4] was 102 % of control and the T/C under setting [5] was 94 % of control.

On to `CN(N=O)C(=O)Nc1cc(=O)[nH]c(SCc2ccccc2)n1`, for which the T/C was 104 % of control under setting [12], 114 % of control under setting [13], 124 % of control under setting [4] and 160 % of control under setting [5].

On to `CC1(C)OC2C3CC(C2O1)C1C3C2(Cl)CC1(Cl)C(Cl)=C2Cl` (stereo not given), for which the T/C was 106 % of control under setting [14]; 99 % of control (dose: 100.0 mg/kg/injection, schedule: Q01DX005 (ip), vehicle: saline with Tween-80); 101 % of control (dose: 200.0 mg/kg/injection, schedule: Q01DX005 (ip), vehicle: saline with Tween-80).

Consider `Nc1c(C(=O)O)ccc2c1C(=O)c1ccccc1C2=O`, for which the T/C is 96 % of control (dose: 6.25 mg/kg/injection, schedule: Q01DX005 (ip), vehicle: saline with Tween-80); 96 % of control (dose: 12.5 mg/kg/injection, schedule: Q01DX005 (ip), vehicle: saline with Tween-80); 98 % of control (dose: 25.0 mg/kg/injection, schedule: Q01DX005 (ip), vehicle: saline with Tween-80); 103 % of control under setting [14].

Turning to `Oc1ccc(C2(c3ccc(O)cc3)CC3CC2C2CCCC32)cc1` (stereo not given), the T/C (dose: 50.0 mg/kg/injection, schedule: Q01DX009 (ip), vehicle: Klucel (hydroxypropylcellulose) (HPC)) was 98 % of control; the T/C (dose: 100.0 mg/kg/injection, schedule: Q01DX009 (ip), vehicle: Klucel (hydroxypropylcellulose) (HPC)) was 97 % of control; the T/C (dose: 200.0 mg/kg/injection, schedule: Q01DX009 (ip), vehicle: Klucel (hydroxypropylcellulose) (HPC)) is 97 % of control.

Take `COc1ccc(C2=C(Cl)C(=O)N(c3ccccc3Cl)C(=O)C2(Cl)Cl)cc1`: the T/C was 105 % of control (dose: 100.0 mg/kg/injection, schedule: Q04DX002 (ip), vehicle: Klucel (hydroxypropylcellulose) (HPC)); 112 % of control (dose: 200.0 mg/kg/injection, schedule: Q04DX002 (ip), vehicle: Klucel (hydroxypropylcellulose) (HPC)); 113 % of control (dose: 400.0 mg/kg/injection, schedule: Q04DX002 (ip), vehicle: Klucel (hydroxypropylcellulose) (HPC)).

As to `O=C1c2ccccc2-c2ccc(NC(=O)C34CC5CC(CC(C5)C3)C4)cc21`, the T/C is 86 % of control under setting [4], 87 % of control under setting [5] and 90 % of control under setting [6].

Consider `CNNC(=O)C(=O)n1ccnc1`, for which the T/C was 104 % of control (dose: 50.0 mg/kg/injection, schedule: Q01DX005 (ip), vehicle: saline); 103 % of control (dose: 100.0 mg/kg/injection, schedule: Q01DX005 (ip), vehicle: saline); 101 % of control (dose: 200.0 mg/kg/injection, schedule: Q01DX005 (ip), vehicle: saline).

With `COC(=O)Cc1ccccc1-n1nccc1S(C)=O` (stereo not given), the T/C runs as follows: under setting [7], 109 % of control; under setting [8], 104 % of control; (dose: 240.0 mg/kg/injection, schedule: Q01DX005 (ip), vehicle: saline with Tween-80) 106 % of control.
